In paper PMC5218480 (PLoS ONE, 2017):

Test system: MV-4-11 cells
Experiment: Gene expression microarray analysis (Affymetrix PrimeView) and GSEA
Format: cell-based, human
Parameters: RFU PODN (11730768_x_at) / Fold change /veh PODN (11730768_x_at) / RFU LINC00158 (11744669_a_at) / Fold change /veh LINC00158 (11744669_a_at) / RFU DUSP10 (11751237_a_at) / Fold change /veh DUSP10 (11751237_a_at) / RFU ID3 (11757404_x_at) / Fold change /veh ID3 (11757404_x_at) / RFU PLEKHG5 (11737974_s_at) / Fold change /veh PLEKHG5 (11737974_s_at) / RFU LRRC4B (11730491_at) / Fold change /veh LRRC4B (11730491_at) / RFU GIMAP4 (11747438_a_at) / Fold change /veh GIMAP4 (11747438_a_at) / RFU KRT8 (11758183_x_at) / Fold change /veh KRT8 (11758183_x_at) / RFU CNN1 (11734310_a_at) / Fold change /veh CNN1 (11734310_a_at) / RFU VPS37D (11726825_at) / Fold change /veh VPS37D (11726825_at) / RFU C10orf10 (11716522_x_at) / Fold change /veh C10orf10 (11716522_x_at) / RFU KIR2DL2 /// KIR2DL4 /// KIR2DL5A /// KIR2DL5B /// KIR2DS1 /// KIR2DS2 /// KIR2DS3 /// KIR2DS4 /// KIR3DL3 /// KIR3DL3 /// KIR3DS1 (11738374_at) / Fold change /veh KIR2DL2 /// KIR2DL4 /// KIR2DL5A /// KIR2DL5B /// KIR2DS1 /// KIR2DS2 /// KIR2DS3 /// KIR2DS4 /// KIR3DL3 /// KIR3DL3 /// KIR3DS1 (11738374_at) / RFU C1QL1 (11718748_at) / Fold change /veh C1QL1 (11718748_at) / RFU TMPRSS4 (11747572_a_at) / Fold change /veh TMPRSS4 (11747572_a_at) / RFU HAMP (11756126_x_at) / Fold change /veh HAMP (11756126_x_at) / RFU RNFT2 (11725882_a_at) / Fold change /veh RNFT2 (11725882_a_at) / RFU NR4A2 (11747474_a_at) / Fold change /veh NR4A2 (11747474_a_at) / RFU ABCC12 (11746883_a_at) / Fold change /veh ABCC12 (11746883_a_at) / RFU TMEM136 (11760407_x_at) / Fold change /veh TMEM136 (11760407_x_at) / RFU CLDN22 /// WWC2 (11732394_at) / Fold change /veh CLDN22 /// WWC2 (11732394_at) / RFU HLA-DPB1 (11760878_x_at) / Fold change /veh HLA-DPB1 (11760878_x_at) / RFU SPINT1 (11716480_a_at) / Fold change /veh SPINT1 (11716480_a_at) / RFU GAP43 (11754022_s_at) / Fold change /veh GAP43 (11754022_s_at) / RFU A4GNT (11735810_at) / Fold change /veh A4GNT (11735810_at) / RFU PRB3 (11715151_x_at) / Fold change /veh PRB3 (11715151_x_at) / RFU TUBB4B (11761932_at) / Fold change /veh TUBB4B (11761932_at) / RFU CAPN14 (11732068_a_at) / Fold change /veh CAPN14 (11732068_a_at) / RFU TMCC2 (11721928_a_at) / Fold change /veh TMCC2 (11721928_a_at) / RFU IRGQ (11745062_a_at) / Fold change /veh IRGQ (11745062_a_at) / RFU FAM174B (11720279_a_at) / Fold change /veh FAM174B (11720279_a_at) / RFU TMPRSS4 (11748680_a_at) / Fold change /veh TMPRSS4 (11748680_a_at) / RFU FAM212B (11763350_a_at) / Fold change /veh FAM212B (11763350_a_at) / RFU PLEKHG5 (11743358_a_at) / Fold change /veh PLEKHG5 (11743358_a_at) / RFU ZSCAN30 (11745921_a_at) / Fold change /veh ZSCAN30 (11745921_a_at) / RFU CMKLR1 (11741424_a_at) / Fold change /veh CMKLR1 (11741424_a_at) / RFU LOC101060620 /// MAPK8IP1 (11723275_at) / Fold change /veh LOC101060620 /// MAPK8IP1 (11723275_at) / RFU SPTSSB (11747773_x_at) / Fold change /veh SPTSSB (11747773_x_at) / RFU PRSS12 (11739890_at) / Fold change /veh PRSS12 (11739890_at) / RFU BIN1 (11741810_x_at) / Fold change /veh BIN1 (11741810_x_at) / RFU WNT11 (11732464_a_at) / Fold change /veh WNT11 (11732464_a_at) / RFU C10orf10 (11716521_a_at) / Fold change /veh C10orf10 (11716521_a_at) / RFU C5orf56 (11738089_at) / Fold change /veh C5orf56 (11738089_at) / RFU CYB561 (11721691_x_at) / Fold change /veh CYB561 (11721691_x_at) / RFU ANKRD19P (11752326_a_at) / Fold change /veh ANKRD19P (11752326_a_at) / RFU OR2T12 /// OR2T33 /// OR2T8 (11738714_s_at) / Fold change /veh OR2T12 /// OR2T33 /// OR2T8 (11738714_s_at) / RFU VCAN (11748164_a_at) / Fold change /veh VCAN (11748164_a_at) / RFU JSRP1 (11732532_at) / Fold change /veh JSRP1 (11732532_at) / RFU KRTAP10-11 (11738290_x_at) / Fold change /veh KRTAP10-11 (11738290_x_at) / RFU MYO3A (11730013_a_at) / Fold change /veh MYO3A (11730013_a_at) / RFU EBF3 (11725865_a_at) / Fold change /veh EBF3 (11725865_a_at) / RFU CAMK2N1 (11719241_x_at) / Fold change /veh CAMK2N1 (11719241_x_at) / RFU C5orf56 (11738088_a_at) / Fold change /veh C5orf56 (11738088_a_at) / RFU OLFML3 (11715873_a_at) / Fold change /veh OLFML3 (11715873_a_at) / RFU LOC100653217 /// NTM (11731650_a_at) / Fold change /veh LOC100653217 /// NTM (11731650_a_at) / RFU MAPK11 (11762145_a_at) / Fold change /veh MAPK11 (11762145_a_at) / RFU FIZ1 (11724087_x_at) / Fold change /veh FIZ1 (11724087_x_at) / RFU OASL (11726364_x_at) / Fold change /veh OASL (11726364_x_at) / RFU SOX15 (11748057_x_at) / Fold change /veh SOX15 (11748057_x_at) / RFU CD79A (11719716_a_at) / Fold change /veh CD79A (11719716_a_at) / RFU HIST1H1D (11736915_at) / Fold change /veh HIST1H1D (11736915_at) / RFU CASKIN2 (11723855_a_at) / Fold change /veh CASKIN2 (11723855_a_at) / RFU LOC730098 (11760151_x_at) / Fold change /veh LOC730098 (11760151_x_at) / RFU OR4N2 (11742367_at) / Fold change /veh OR4N2 (11742367_at) / RFU PRRT2 (11749266_a_at) / Fold change /veh PRRT2 (11749266_a_at) / RFU SNX32 (11753110_a_at) / Fold change /veh SNX32 (11753110_a_at) / RFU CDHR5 (11726645_a_at) / Fold change /veh CDHR5 (11726645_a_at) / RFU RCAN1 (11760418_a_at) / Fold change /veh RCAN1 (11760418_a_at) / RFU FAM167A (11723789_a_at) / Fold change /veh FAM167A (11723789_a_at) / RFU FAM26E (11764081_at) / Fold change /veh FAM26E (11764081_at) / RFU ISYNA1 (11749810_s_at) / Fold change /veh ISYNA1 (11749810_s_at) / RFU ACY1 (11761880_at) / Fold change /veh ACY1 (11761880_at) / RFU 11764098_at / Fold change /veh 11764098_at / RFU SAMD14 (11745864_x_at) / Fold change /veh SAMD14 (11745864_x_at) / RFU NPB (11741838_a_at) / Fold change /veh NPB (11741838_a_at) / RFU TMPRSS6 (11731388_a_at) / Fold change /veh TMPRSS6 (11731388_a_at) / RFU KRTAP10-2 (11738614_at) / Fold change /veh KRTAP10-2 (11738614_at) / RFU ARHGAP8 /// PRR5-ARHGAP8 (11727945_x_at) / Fold change /veh ARHGAP8 /// PRR5-ARHGAP8 (11727945_x_at) / RFU KRTAP5-7 /// NADSYN1 (11734609_at) / Fold change /veh KRTAP5-7 /// NADSYN1 (11734609_at) / RFU RASL12 (11751679_a_at) / Fold change /veh RASL12 (11751679_a_at) / RFU CDKN2B (11736163_a_at) / Fold change /veh CDKN2B (11736163_a_at) / RFU PRF1 (11729649_at) / Fold change /veh PRF1 (11729649_at) / RFU, ZNF638 /// ZNF638-IT1 / Fold change vs veh, ZNF638 /// ZNF638-IT1 / RFU, PANK3 / Fold change vs veh, PANK3 / RFU, SH3YL1 / Fold change vs veh, SH3YL1 / RFU, ZEB2 / Fold change vs veh, ZEB2 / RFU, NRIP1 / Fold change vs veh, NRIP1 / RFU, PTTG1IP / Fold change vs veh, PTTG1IP / RFU, CAPN2 / Fold change vs veh, CAPN2 / RFU, MED14 / Fold change vs veh, MED14 / RFU, SNORA58 / Fold change vs veh, SNORA58 / RFU, C1orf63 / Fold change vs veh, C1orf63 / RFU, LRRFIP1 / Fold change vs veh, LRRFIP1 / RFU, NDUFAF7 / Fold change vs veh, NDUFAF7 / RFU, SLC12A2 / Fold change vs veh, SLC12A2 / RFU, IBTK / Fold change vs veh, IBTK / RFU, ESF1 / Fold change vs veh, ESF1 / Fold change vs veh, TMEM50B / RFU, TAOK1 / Fold change vs veh, TAOK1 / RFU, ACBD3 / Fold change vs veh, ACBD3 / RFU, TMA16 / Fold change vs veh, TMA16 / RFU, RWDD3 / Fold change vs veh, RWDD3 / RFU, BCAT1 / Fold change vs veh, BCAT1 / RFU, EDEM3 / Fold change vs veh, EDEM3 / RFU, TMEM33 / Fold change vs veh, TMEM33 / RFU, WDR75 / Fold change vs veh, WDR75 / RFU, AHCTF1 / Fold change vs veh, AHCTF1 / RFU, TFRC / Fold change vs veh, TFRC / RFU, ZDHHC17 / Fold change vs veh, ZDHHC17 / RFU, NOM1 / Fold change vs veh, NOM1 / RFU, ARL8B / Fold change vs veh, ARL8B / RFU, ZBTB11 / Fold change vs veh, ZBTB11 / RFU, TAMM41 / Fold change vs veh, TAMM41 / RFU, KIAA1704 /// LOC100996395 / Fold change vs veh, KIAA1704 /// LOC100996395 / RFU, ING1 / Fold change vs veh, ING1 / RFU, TRMT61B / Fold change vs veh, TRMT61B / RFU, FUBP3 / Fold change vs veh, FUBP3 / RFU, TP53 / Fold change vs veh, TP53 / RFU, TNKS2 / Fold change vs veh, TNKS2 / RFU, ZFP14 / Fold change vs veh, ZFP14 / RFU, ACTR2 / Fold change vs veh, ACTR2 / RFU, PPP3R1 / Fold change vs veh, PPP3R1 / RFU, PIK3R1 / Fold change vs veh, PIK3R1 / RFU, HNRNPA1 / Fold change vs veh, HNRNPA1 / RFU, RNF170 / Fold change vs veh, RNF170 / RFU, ZNF28 / Fold change vs veh, ZNF28 / RFU, RNGTT / Fold change vs veh, RNGTT / RFU, OGT / Fold change vs veh, OGT / RFU, BRD1 / Fold change vs veh, BRD1 / RFU, MARS / Fold change vs veh, MARS / RFU, ZNF655 / Fold change vs veh, ZNF655 / RFU, FAHD1 / Fold change vs veh, FAHD1 / RFU, BDP1 / Fold change vs veh, BDP1 / RFU, LRRCC1 / Fold change vs veh, LRRCC1 / RFU, ARID1A / Fold change vs veh, ARID1A / RFU, ZNF146 / Fold change vs veh, ZNF146 / RFU, ZNF330 / Fold change vs veh, ZNF330 / RFU, GPN3 / Fold change vs veh, GPN3 / RFU, C9orf123 / Fold change vs veh, C9orf123 / RFU, N4BP2L2 / Fold change vs veh, N4BP2L2 / RFU, ARFIP1 / Fold change vs veh, ARFIP1 / RFU, FAM179B / Fold change vs veh, FAM179B / RFU, BCL10 / Fold change vs veh, BCL10 / RFU, UHRF1BP1L / Fold change vs veh, UHRF1BP1L / RFU, BET1 / Fold change vs veh, BET1 / RFU, CNOT2 / Fold change vs veh, CNOT2 / RFU, ZNF268 / Fold change vs veh, ZNF268 / Fold change vs veh, ZNF507 / RFU, DGCR2 / Fold change vs veh, DGCR2 / RFU, WDSUB1 / Fold change vs veh, WDSUB1 / Fold change vs veh, HSP90B1 /// MIR3652 / RFU, ADSS / Fold change vs veh, ADSS / RFU, GK / Fold change vs veh, GK / RFU, ZNF148 / Fold change vs veh, ZNF148 / RFU, TAF9 / Fold change vs veh, TAF9 / RFU, SLC1A5 / Fold change vs veh, SLC1A5 / RFU, SLMO2 / Fold change vs veh, SLMO2 / RFU, ABCC4 / Fold change vs veh, ABCC4 / RFU, LOC101060439 /// RAP1B / Fold change vs veh, LOC101060439 /// RAP1B / RFU, RFX7 / Fold change vs veh, RFX7 / RFU, GTPBP10 / Fold change vs veh, GTPBP10 / RFU, CNEP1R1 / Fold change vs veh, CNEP1R1 / RFU, BIVM-ERCC5 /// ERCC5 / Fold change vs veh, BIVM-ERCC5 /// ERCC5 / RFU, ILF3 / Fold change vs veh, ILF3 / RFU 11762660_at / Fold change /veh 11762660_at / RFU VCAN (11757783_s_at) / Fold change /veh VCAN (11757783_s_at) / RFU DDX43 (11728927_at) / Fold change /veh DDX43 (11728927_at) / RFU KRT8 (11758188_x_at) / Fold change /veh KRT8 (11758188_x_at) / RFU NKD1 (11759106_at) / Fold change /veh NKD1 (11759106_at) / RFU SRD5A1 (11742802_a_at) / Fold change /veh SRD5A1 (11742802_a_at) / RFU TPSAB1 /// TPSB2 (11721975_s_at) / Fold change /veh TPSAB1 /// TPSB2 (11721975_s_at) / RFU GSTM3 (11746129_a_at) / Fold change /veh GSTM3 (11746129_a_at) / RFU IL23R (11737362_x_at) / Fold change /veh IL23R (11737362_x_at) / RFU TMEM51 (11727254_a_at) / Fold change /veh TMEM51 (11727254_a_at) / RFU PIWIL2 (11732686_x_at) / Fold change /veh PIWIL2 (11732686_x_at) / RFU ORM1 (11744905_x_at) / Fold change /veh ORM1 (11744905_x_at) / RFU CCDC152 (11743942_at) / Fold change /veh CCDC152 (11743942_at) / RFU ECM1 (11717891_a_at) / Fold change /veh ECM1 (11717891_a_at) / RFU IL23R (11748794_a_at) / Fold change /veh IL23R (11748794_a_at) / RFU TNFAIP8L3 (11732012_x_at) / Fold change /veh TNFAIP8L3 (11732012_x_at) / RFU MBOAT4 (11741988_at) / Fold change /veh MBOAT4 (11741988_at) / RFU 11764193_at / Fold change /veh 11764193_at / RFU TMEM53 (11763286_at) / Fold change /veh TMEM53 (11763286_at) / RFU MAGEB2 (11727129_at) / Fold change /veh MAGEB2 (11727129_at) / RFU TMEM200A (11744735_a_at) / Fold change /veh TMEM200A (11744735_a_at) / RFU CCDC152 (11751479_a_at) / Fold change /veh CCDC152 (11751479_a_at) / RFU FAM211A (11726209_a_at) / Fold change /veh FAM211A (11726209_a_at) / RFU RGS16 (11746705_a_at) / Fold change /veh RGS16 (11746705_a_at) / RFU VCAN (11755009_s_at) / Fold change /veh VCAN (11755009_s_at) / RFU RHOB (11743442_s_at) / Fold change /veh RHOB (11743442_s_at) / RFU RGS16 (11720943_a_at) / Fold change /veh RGS16 (11720943_a_at) / RFU RGS16 (11720944_at) / Fold change /veh RGS16 (11720944_at) / RFU, VPS4B / Fold change vs veh, VPS4B / RFU, CREB1 / Fold change vs veh, CREB1 / RFU, DNAJC13 / Fold change vs veh, DNAJC13 / RFU, GNAQ / Fold change vs veh, GNAQ / RFU, CDK5R1 / Fold change vs veh, CDK5R1 / RFU, ZRANB3 / Fold change vs veh, ZRANB3 / RFU, CUL4A / Fold change vs veh, CUL4A / RFU, CCNY / Fold change vs veh, CCNY / RFU, UFL1 / Fold change vs veh, UFL1 / RFU, COG3 / Fold change vs veh, COG3 / RFU, DIAPH2 / Fold change vs veh, DIAPH2 / RFU, SKA2 / Fold change vs veh, SKA2 / RFU, AFF3 / Fold change vs veh, AFF3 / RFU, LMF1 / Fold change vs veh, LMF1 / RFU, IPO11 / Fold change vs veh, IPO11 / RFU, DFFB / Fold change vs veh, DFFB / RFU, FOXP1 / Fold change vs veh, FOXP1 / RFU, CARD8 / Fold change vs veh, CARD8 / RFU, STRN3 / Fold change vs veh, STRN3 / RFU, ADK / Fold change vs veh, ADK / RFU, RASSF2 / Fold change vs veh, RASSF2 / RFU, WIPF1 / Fold change vs veh, WIPF1 / RFU, LARP1B / Fold change vs veh, LARP1B / RFU, RASA1 / Fold change vs veh, RASA1 / RFU, RB1 / Fold change vs veh, RB1 / RFU, PPFIA1 / Fold change vs veh, PPFIA1 / RFU, MAT2A / Fold change vs veh, MAT2A / RFU, CCT5 / Fold change vs veh, CCT5 / RFU, WDR92 / Fold change vs veh, WDR92 / RFU, CUX1 / Fold change vs veh, CUX1 / RFU, TTC7A / Fold change vs veh, TTC7A / RFU, TMEM135 / Fold change vs veh, TMEM135 / RFU, DEPTOR / Fold change vs veh, DEPTOR / RFU, CPM / Fold change vs veh, CPM / RFU, DNAJB6 / Fold change vs veh, DNAJB6 / RFU, CACNA2D3 / Fold change vs veh, CACNA2D3 / RFU, DTX4 / Fold change vs veh, DTX4 / RFU, TFCP2 / Fold change vs veh, TFCP2 / RFU, GMCL1 /// GMCL1P1 / Fold change vs veh, GMCL1 /// GMCL1P1 / RFU, AEBP2 / Fold change vs veh, AEBP2 / RFU, SNHG1 /// SNORD22 /// SNORD25 /// SNORD26 /// SNORD27 /// SNORD28 /// SNORD29 /// SNORD31 / Fold change vs veh, SNHG1 /// SNORD22 /// SNORD25 /// SNORD26 /// SNORD27 /// SNORD28 /// SNORD29 /// SNORD31 / Fold change (Aza/veh), C12orf56 (ProbeSet 11735607_a_at) / Fold change (ACY-1035/veh), C12orf56 (ProbeSet 11735607_a_at) / Fold change (Aza/veh), FGFR1OP (ProbeSet 11751329_s_at) / Fold change (ACY-1035/veh), FGFR1OP (ProbeSet 11751329_s_at) / Fold change (Aza/veh), VPS36 (ProbeSet 11739960_a_at) / Fold change (ACY-1035/veh), VPS36 (ProbeSet 11739960_a_at) / RFU SYPL1 (11715823_x_at) / Fold change /veh SYPL1 (11715823_x_at) / RFU IGFBP7 (11715501_s_at) / Fold change /veh IGFBP7 (11715501_s_at) / RFU REEP3 (11722064_at) / Fold change /veh REEP3 (11722064_at) / RFU IGLL1 (11728026_x_at) / Fold change /veh IGLL1 (11728026_x_at): dose or concentration left out as unconfirmed
Conditions: ProbeSet 11734937_a_at; LIST B

With `Nc1ccc(-c2cccs2)cc1NC(=O)c1ccc2c(c1)cc(C1CC1)n2CCN1CCOCC1` [ACY-1035] the “Fold change vs veh, CNOT2” value was 0.83.
